Earlier results on five compounds are cited in patent US20260345593A1, “ORAL FORMULATION OF N-PYRIDINYL ACETAMIDE DERIVATIVE FOR TREATING INTERSTITIAL LUNG DISEASE” (AstraZeneca AB, priority 2022, published 2026).

The conditions of series [1]: 20 mg BID, preclinical and clinical studies; cited from earlier work.
Another series has as its system pH elevation. To be noted: 20 mg BID oral pre-treatment; cited from earlier work.
Series [2] deals with Axin2 expression levels in skin samples from subjects with advanced cancers. To be noted: 10 mg once daily, cited from earlier work.
In another series the test system is patients with IPF. To be noted: cited from earlier work; for rate of decline in lung function: patients with IPF (King 2014 and Richeldi 2014); for GI side effects / tolerability in IPF patients: patients with IPF.
In series [3] the test system is patients with ILD-PF other than IPF. To be noted: ILD-PF other than IPF (Wells 2020); cited from earlier work.
Series [4] deals with ILD patients with SSc-ILD. To be noted: SSc-ILD (Khanna 2020); cited from earlier work.

For `COCCCOc1ccnc(C[S+]([O-])c2nc3ccccc3[nH]2)c1C` (racemic) [rabeprazole, (RS)-2-([4-(3-methoxypropoxy)-3-methylpyridin-2-yl]methylsulfinyl)-1H-benzo[d]imidazole], the safety concerns entry in series [1] is given as “not raised any notable safety concerns”. The “time to PD steady state of pH elevation” value in the series with pH elevation is on record as 3 days.

Regarding `Cc1cc(-c2ncc(CC(=O)Nc3ccc(-c4cnccn4)cn3)cc2C)ccn1` [Wnt974], in series [2] (subjects with advanced cancers (Rodon 2021)), the “reduction in Axin2 expression levels in skin samples” value was “approximately 90%”. Further, the “average Ctrough at steady state” value in series [2] (subjects with advanced cancers) is 3.7 ×IC50.

`COC(=O)c1ccc2c(c1)NC(=O)/C2=C(\Nc1ccc(N(C)C(=O)CN2CCN(C)CC2)cc1)c1ccccc1` [nintedanib, methyl (3Z)-3-{[(4-{methyl[(4-methylpiperazin-1-yl)acetyl]amino}phenyl)amino](phenyl)methylidene}-2-oxo-2,3-dihydro-1H-indole-6-carboxylate]: in the series on patients with IPF, the “rate of decline in lung function” value was “slow the rate of decline in lung function”, the GI side effects result was “troublesome GI side effects” and the “tolerability in IPF patients” value is “many patients with IPF are not able to tolerate these medications”. Besides, the “rate of decline in lung function” value in series [3] is recorded as “slow the rate of decline in lung function in these patients”.

With `Cc1ccc(=O)n(-c2ccccc2)c1` [pirfenidone], in the series with patients with IPF, the “rate of decline in lung function” value was “slow the rate of decline in lung function”, the GI side effects result was “troublesome GI side effects” and the “tolerability in IPF patients” value is reported as “many patients with IPF are not able to tolerate these medications”.

For “Tocilizumab: a monoclonal antibody directed against the IL-6 receptor”, in series [4], the “progression of lung disease” value was “slow progression of lung disease”.
